Source: patent US20090209527A1, “Methods for Using Rapamycin Analogues in the Treatment of Neurological Disorders” (Wyeth, priority 2008, published 2009)

Tests used:
[1] = system: cortical neuron cultures; assay: Cortical neuron assay (neurite outgrowth in dissociated cortical neuron cultures); type: cell-based, rat
Experimental: Dissociated cortical neuron cultures were prepared as previously described (Liu et al., Screening of Immunophilin Ligands by Quantitative Analysis of Neurofilament Expression and Neurite Outgrowth in Cultured Neurons and Cells, J. Neurosci. Methods, 2007 Jul. 30; 163(2):310-20).
Briefly, embryonic day 15 rat fetuses were collected and dissected in ice-cold PBS. Dissected cortices were pooled together and transferred to an enzymatic dissociation medium containing papain. After 30 minutes, the tissue was mechanically triturated with a fire-polished glass Pasteur pipette. Single-cell suspensions in complete media were seeded on poly-L-ornithine and laminin coated 96-well plates. After 24 hours, cultures were treated with various concentrations of compound for 72 hours. The cultures were then fixed and stained with an anti-tubulin primary antibody (TUJ-1) and a fluorescent-tagged secondary antibody. Neurite outgrowth was determined by using the Enhanced Neurite Outgrowth (ENO) algorithm with the Cellomics ArrayScan and expressed as average neurite length or total neurite length per cell.

[2] = system: Spinal cord neuron cultures; assay: Spinal cord neuron assay; type: cell-based; settings: Rattus norvegicus, 72 hours treatment, read-out: EC50 in spinal cord neuron assays
Experimental: Spinal cord neuron cultures were prepared from embryonic day 15 (E15) rat embryos (Liu et al., Screening of Immunophilin Ligands by Quantitative Analysis of Neurofilament Expression and Neurite Outgrowth in Cultured Neurons and Cells, J. Neurosci. Methods, 2007 Jul. 30; 163(2):310-20). The embryos were collected and their spinal cords were removed in ice-cold phosphate-buffered saline (PBS) without Ca^2+ and Mg^2+. Dissected pieces of spinal cord tissue were pooled together and transferred to an enzymatic dissociation media containing 20 IU/mL papain in Earle's balanced salt solution (Worthington Biochemical, Freehold, N.J.) and incubated for 30 minutes at 37° C. After enzymatic dissociation, the papain solution was aspirated and the tissue mechanically triturated with a fire-polished Pasteur pipette in complete media [Neurobasal Medium with B-27 supplement (Gibco, Grand Island, N.Y.), 100 IU/mL penicillin, 100 µg/mL streptomycin, […] aphidicolin, 0.5 mM glutamate] containing 2,000 IU/mL DNase and 10 mg/mL ovomucoid protease inhibitor. Single-cell suspensions in complete media were plated on pre-coated poly-L-ornithine/laminin 96-well plates (Becton-Dickinson, Bedford, Mass.) at a density of 1.0×10^4 cells/well. Spinal cord neurons were maintained for 24 hours then exposed to vehicle or various concentrations of compound for 72 hours.

[3] = system: pMCAO in rats; assay: Permanent occlusion of middle cerebral artery (pMCAO), Example 10, behavioral deficit scoring over 21 days; type: in vivo, Wistar rats; settings: 10 mg/kg i.v. 1.5, 5.5, 24, 48 and 72 hours post ischemia
Experimental: Administration of Compound of Example 2—10 mg/kg i.v. 1.5, 5.5, 24, 48, and 72 hours post ischemia.
Adult male Wistar rats (Charles River, Wilmington, Mass.) 270 g to 300 g were anesthetized with 3% isoflurane in 70% nitrous oxide and 30% oxygen through a nose cone. Temperature was maintained at 37° C. throughout the surgery using a heating lamp. Permanent occlusion of MCAO was induced by electro cauterization of the distal portion of the MCA (via a craniotomy) with a 90 minute ligation of both carotid arteries to interrupt collateral circulation (Chen S T, Hsu C Y, Hogan E L, Maricq H Balentine J D (1986) A model of focal ischemic stroke in the rat: reproducible extensive cortical infarction. Stroke 17:738-743). Compound was administered 10 mg/kg i.v. 1.5, 5.5, 24, 48, and 72 hours post ischemia. Rats were kept for 21 days for long-term functional recovery evaluation. […] Rats extending both forelimbs toward the table were scored as 0, flexing contralateral limb toward the body and/or rotating the contralateral shoulder and limb medially were scored as 1, and rolling up the body toward the contralateral side and attempting to grasp the tail were scored as 2. […] Rats retracting hind limb back on bench top immediately were scored as 0, delaying (>2 seconds) were scored as 1, and unable to retract hind limb were score as 2. […]

CO[C@H]1C[C@@H]2CC[C@@H](C)[C@@](O)(O2)C(=O)C(=O)N2CCCC[C@H]2C(=O)O[C@H]([C@H](C)C[C@@H]2CC[C@@H](O)[C@H](OC)C2)CC(=O)[C@H](C)/C=C(\C)[C@@H](O)[C@@H](OC)C(=O)[C@H](C)C[C@H](C)[C@@H]2CC[C@H](/C=C/1C)ON2c1ccccc1 [Example 2, 9,27-dihydroxy-3-{2-[4-hydroxy-3-methoxycyclohexyl]-1-methylethyl}-10,21-dimethoxy-6,8,12,14,20,26-hexamethyl-37-phenyl-4,9,10,12,13,14,15,16,17,18,21,22,23,24,25,26,27,32,33,34,34a-henicosahydro-3H-23,27-epoxy-18,15-(epoxyimino)pyrido[2,1-c][1,4]oxazacyclohentriacontine-1,5,11,28,29(6H,31H)-pentone] was tested, and the EC50 ([1]; Rattus norvegicus, Cortical neurone, 72 hours treatment, neurite outgrowth, read-out: EC50 in cortical neuron assays) was < 1 µM, the “neuronal survival and neurite outgrowth in cultured cortical neurons” value ([1]; summary statement) was “promotes neuronal survival and neurite outgrowth” and the EC50 [2] was < 1 µM. For the same molecule, the “behavior deficit scoring (total score 0 to 12) following pMCAO” value [3] was “statistically significant reduction of behavior deficit scoring”.
